The subject of one series is Artemia. The series is described as follows: Toxicity in brine shrimp. Format: organism-based. The settings on record: in vivo.
Series [1] has as its system Agrobacterium tumefaciens. The series can be described thus: Antitumor activity against Agrobacterium tumefaciens-induced crown gall tumors in potato tubers by potato disk assay. It is filed as functional.

The structures appear in SMILES notation.

`CC(=O)O.CC1=CCCC2[C@](C)(Cc3cc(O)ccc3O)[C@@H](C)CC[C@]12C` (stereo partly specified) [AVAROL MONOACETATE] registered an LC50 with Artemia of 0.09 ppm. For the same molecule, in series [1], the “inhibition (INH)” value is given as 59%.
Taken in the same sequence, the figures for `CC1=CCC[C@H]2[C@](C)(Cc3cc(O)ccc3O)[C@@H](C)CC[C@]12C` [AVAROL] were 0.18 ppm and 64%.
In the series with Artemia, `CC1=CCC[C@H]2[C@](C)(CC3=CC(=O)C=CC3=O)[C@@H](C)CC[C@]12C` [AVARONE] had an LC50 of 0.14 ppm. Further, in series [1], the “inhibition (INH)” value was determined as 63%.

These data come from ChEMBL document CHEMBL1147289, “A new bioactive derivative of avarol from the marine sponge Dysidea avara” (J Nat Prod, 1989).
